# From PMC3914206
# Columns and labels:
# Format in all cases: binding
# panel of 442 kinases [1] = biological target: T1, panel of 442 kinases (Homo sapiens, UniProt Q8TBX8); settings: Compound Concentration 10 µM
# T1 construct: purchased KINOMEscan
# T1 sequence (Q8TBX8 1-421): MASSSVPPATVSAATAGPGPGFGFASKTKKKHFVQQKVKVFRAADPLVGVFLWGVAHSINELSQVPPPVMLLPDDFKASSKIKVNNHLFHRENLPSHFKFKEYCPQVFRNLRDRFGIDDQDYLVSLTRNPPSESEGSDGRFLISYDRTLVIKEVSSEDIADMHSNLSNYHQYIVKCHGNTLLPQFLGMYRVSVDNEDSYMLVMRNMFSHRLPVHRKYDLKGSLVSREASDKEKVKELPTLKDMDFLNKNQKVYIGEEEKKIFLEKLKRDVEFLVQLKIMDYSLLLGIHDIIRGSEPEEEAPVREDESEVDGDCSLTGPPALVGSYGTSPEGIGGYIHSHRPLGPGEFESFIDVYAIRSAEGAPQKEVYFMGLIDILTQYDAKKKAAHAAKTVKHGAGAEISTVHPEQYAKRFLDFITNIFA
# Source text: (§1) We assessed the selectivity of members of this scaffold using the KINOMEscan methodology across a near comprehensive panel of 442 kinases [[18,27]].
# panel of 442 kinases [2] = biological target: T2, panel of 442 kinases (Homo sapiens, UniProt P07947); settings: kinase YES; compound concentration 10 µM
# T2 construct: purchased KINOMEscan
# Source text: as §1
# panel of 442 kinases [3] = biological target: T3, panel of 442 kinases (Homo sapiens, UniProt Q15835); settings: Compound Concentration 10 µM
# T3 construct: purchased KINOMEscan
# T3 sequence (Q15835 1-563): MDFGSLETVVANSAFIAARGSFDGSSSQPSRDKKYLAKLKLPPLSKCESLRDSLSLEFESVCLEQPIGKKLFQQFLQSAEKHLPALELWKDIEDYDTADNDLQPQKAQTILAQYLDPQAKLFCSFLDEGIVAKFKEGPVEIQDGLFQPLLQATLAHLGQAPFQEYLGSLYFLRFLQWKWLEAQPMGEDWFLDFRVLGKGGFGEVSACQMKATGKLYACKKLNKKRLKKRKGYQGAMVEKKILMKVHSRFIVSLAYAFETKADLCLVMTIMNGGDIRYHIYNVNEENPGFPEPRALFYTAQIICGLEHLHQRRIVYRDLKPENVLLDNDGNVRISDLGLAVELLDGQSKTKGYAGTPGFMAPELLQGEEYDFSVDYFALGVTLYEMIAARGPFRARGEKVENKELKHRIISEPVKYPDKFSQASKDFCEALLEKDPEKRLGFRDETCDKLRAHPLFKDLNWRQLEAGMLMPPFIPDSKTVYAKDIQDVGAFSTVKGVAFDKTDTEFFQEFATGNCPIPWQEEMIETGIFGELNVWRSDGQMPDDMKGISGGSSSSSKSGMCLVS
# Source text: as §1
# T2 sequence (P07947 whole entry): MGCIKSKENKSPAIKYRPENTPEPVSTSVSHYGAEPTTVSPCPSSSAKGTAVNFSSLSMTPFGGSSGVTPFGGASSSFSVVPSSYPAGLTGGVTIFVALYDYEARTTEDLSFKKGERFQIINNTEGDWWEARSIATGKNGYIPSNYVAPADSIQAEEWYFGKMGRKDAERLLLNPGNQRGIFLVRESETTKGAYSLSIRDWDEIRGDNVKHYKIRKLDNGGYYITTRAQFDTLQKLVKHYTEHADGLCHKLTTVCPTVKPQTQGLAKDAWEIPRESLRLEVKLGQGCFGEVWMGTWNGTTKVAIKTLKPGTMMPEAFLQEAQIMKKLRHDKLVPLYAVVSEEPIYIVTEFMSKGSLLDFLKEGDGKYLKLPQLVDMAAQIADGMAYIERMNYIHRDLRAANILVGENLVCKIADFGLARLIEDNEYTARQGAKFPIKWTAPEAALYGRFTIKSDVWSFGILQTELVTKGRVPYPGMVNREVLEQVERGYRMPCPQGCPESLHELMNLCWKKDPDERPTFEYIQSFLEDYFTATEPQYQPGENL
SMILES,KINOMEscan: PIP5K2C (panel of 442 kinases [1]),"% Ctrl, YES (panel of 442 kinases [2]) [% Ctrl]",KINOMEscan: GRK1 (panel of 442 kinases [3])
"COc1cc(C(=O)N2CCC(N3CCN(C)CC3)CC2)ccc1Nc1ncc2c(n1)N(C1CCCC1)c1ccccc1C(=O)N2C [Compound 25, 11-cyclopentyl-2-((2-methoxy-4-(4-(4-methylpiperazin-1-yl)piperidine-1-carbonyl)phenyl)amino)-5-methyl-5H-benzo[e]pyrimido[5,4-b][1,4]diazepin-6(11H)-one]",96,89,85
COc1cc(C(=O)N2CCC(N3CCN(C)CC3)CC2)ccc1Nc1ncc2c(n1)N1CCc3cccc(c31)C(=O)N2C [Compound 24],,100,
COc1cc(C(=O)N2CCC(N3CCN(C)CC3)CC2)ccc1Nc1ncc2c(n1)N(C)c1ccccc1C(=O)N2C [15 (LRRK2-IN-1)],40,100,91
CCOc1cc(C(=O)N2CCC(N3CCN(C)CC3)CC2)ccc1Nc1ncc2c(n1)N(C1CCCC1)c1ccccc1C(=O)N2C [Compound 26],93,100,100
